Test results: patent publication US9776972B2, “Pyrazole derivatives as arginine methyltransferase inhibitors and uses thereof” (priority 2013, dated 2017)

What follows are compounds tested against T1, Human CARM1 (PRMT4) (Homo sapiens, UniProt Q86X55) (assay: CARM1 Biochemical Assay (3H-SAM Flashplate, peptide substrate)). Conditions: single experiment or average of multiple experiments.
T1 construct: Flag-CARM1-His; made in house; host or cells: HEK 293F cells (BacMam baculovirus)
T1 sequence (Q86X55 1-585 isoform Q86X55-1): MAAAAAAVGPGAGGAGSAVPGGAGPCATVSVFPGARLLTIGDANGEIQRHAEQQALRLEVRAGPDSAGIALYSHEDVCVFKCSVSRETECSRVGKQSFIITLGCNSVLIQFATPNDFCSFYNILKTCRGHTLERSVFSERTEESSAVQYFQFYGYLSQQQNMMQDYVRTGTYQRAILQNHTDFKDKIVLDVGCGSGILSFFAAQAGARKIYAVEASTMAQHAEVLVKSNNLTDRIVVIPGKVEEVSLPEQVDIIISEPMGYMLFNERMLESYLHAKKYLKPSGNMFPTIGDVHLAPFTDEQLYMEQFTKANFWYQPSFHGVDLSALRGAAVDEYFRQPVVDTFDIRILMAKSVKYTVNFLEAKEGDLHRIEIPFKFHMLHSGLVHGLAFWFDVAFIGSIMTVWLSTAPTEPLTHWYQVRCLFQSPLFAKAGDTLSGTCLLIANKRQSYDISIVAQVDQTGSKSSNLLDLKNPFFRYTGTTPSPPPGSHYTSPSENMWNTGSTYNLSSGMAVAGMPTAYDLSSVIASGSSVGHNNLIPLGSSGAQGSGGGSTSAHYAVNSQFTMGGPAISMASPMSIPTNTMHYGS
Description: S-adenosylmethionine (SAM), S-adenosylhomocysteine (SAH), bicine, Tween20, dimethylsulfoxide (DMSO), bovine skin gelatin (BSG), sodium butyrate and Tris(2-carboxyethyl)phosphine hydrochloride solution (TCEP) were purchased from Sigma-Aldrich at the highest level of purity possible. ^3H-SAM was purchase from American Radiolabeled Chemicals with a specific activity of 80 Ci/mmol. 384-well streptavidin Flashplates were purchased from PerkinElmer.
Peptide representative of human histone H3 residues 16-30 was synthesized with an N-terminal linker-affinity tag motif and a C-terminal amide cap by 21st Century Biochemicals. […] The sequence was Biot-Ahx-[…]-amide and contained a monomethylated arginine at position 26 (SEQ ID NO.: 14).
Recombinant baculovirus were generated according to Bac-to-Bac kit instructions (Life Technologies). […] Infections were carried out at 37° C. for 48 hours, harvested by centrifugation, and stored at −80° C. for purification.
Column was washed with 500 mM NaCl in buffer A and Flag-CARM1-His was eluted with 200 ug/ml FLAG peptide in buffer A. Pooled fractions were dialyzed in 20 mM Tris, 150 mM NaCl, 5% glycerol and 1 mM DTT, pH 7.8.
General Procedure for CARM1 Enzyme Assays on Peptide Substrates.
The assays were all performed in a buffer consisting of 20 mM Bicine (pH=7.6), 1 mM TCEP, 0.005% BSG, and 0.002% Tween 20, prepared on the day of use. […] DMSO (1 ul) was added to Columns 11, 12, 23, 24, rows A-H for the maximum signal control and 1 ul of SAH, a known product and inhibitor of CARM1, was added to columns 11, 12, 23, 24, rows I-P for the minimum signal control. A cocktail (40 ul) containing the CARM1 enzyme was added by Multidrop Combi (Thermo-Fisher). The compounds were allowed to incubate with CARM1 for 30 min at room temperature, then a cocktail (10 ul) containing ^3H-SAM and peptide was added to initiate the reaction (final volume=51 ul). […] The assays were stopped by the addition of non-radiolabeled SAM (10 ul) to a final concentration of 300 uM, which dilutes the ^3H-SAM to a level where its incorporation into the peptide substrate is no longer detectable. 50 ul of the reaction in the 384-well polypropylene plate was then transferred to a 384-well Flashplate and the biotinylated peptides were allowed to bind to the streptavidin surface for at least 1 hour before being washed once with 0.1% Tween20 in a Biotek ELx405 plate washer. The plates were then read in a PerkinElmer TopCount plate reader to measure the quantity of ^3H-labeled peptide bound to the Flashplate surface, measured as disintegrations per minute (dpm) or alternatively, referred to as counts per minute (cpm).
Where dpm=disintegrations per minute, cmpd=signal in assay well, and min and max are the respective minimum and maximum signal controls.
Where top and bottom are the normally allowed to float, but may be fixed at 100 or 0 respectively in a 3-parameter fit. The Hill Coefficient normally allowed to float but may also be fixed at 1 in a 3-parameter fit. Y is the % inhibition and X is the compound concentration.

Row | IC50 | Compound
1 | 1300 nM | CN(CCN)Cc1c[nH]nc1-c1cccc(N(C)C)c1 [Compound 149]
2 | 2060 nM | COc1ccc(-c2n[nH]cc2CN(C)CCN)cc1 [Compound 153]
3 | 612 nM | Cc1ccc(-c2n[nH]cc2CN(C)CCN)cc1 [Compound 162]
4 | 6740 nM | CN(CCN)Cc1c[nH]nc1-c1cc(Cl)ccc1F [Compound 156]
5 | 6130 nM | Cc1ccccc1-c1n[nH]cc1CN(C)CCN [Compound 161]
6 | 6870 nM | Cc1cc(F)ccc1-c1n[nH]cc1CN(C)CCN [Compound 152]
7 | 8320 nM | COc1cc(F)ccc1-c1n[nH]cc1CN(C)CCN [Compound 151]
8 | 5770 nM | COc1ccc(-c2n[nH]cc2CN(C)CCN)c(Cl)c1 [Compound 146]

Second part, the compound before the results:

Row | Compound | IC50
9 | CNCCN(C)Cc1cnn(C2CC2)c1-c1ccc(F)cc1 [Compound 14] | 970 nM
10 | CCOC(=O)c1cccc(-c2n[nH]cc2CN(C)CCN)c1 [Compound 150] | 2420 nM
11 | C=CCn1cc(CN(C)CCNC)c(-c2ccc(OC(C)C)cc2)n1 [Compound 218] | 414 nM
12 | CNCCN(C)Cc1cn[nH]c1-c1cc(F)cc(F)c1 [Compound 18] | 656 nM
13 | CCn1cc(CN(C)CCNC)c(-c2ccc(OC(C)C)cc2)n1 [Compound 213] | 200 nM
14 | CNCCN(C)Cc1cn(C2CC2)nc1-c1ccc(F)cc1 [Compound 13] | 2240 nM
15 | CNCCN(C)Cc1cn(C2CCCC2)nc1-c1ccc(OC(C)C)cc1 [Compound 214] | 168 nM
16 | CNCCN(C)Cc1cn(C(C)C)nc1-c1ccc(F)cc1 [Compound 15] | 3400 nM
17 | C=CCn1ncc(CN(C)CCNC)c1-c1ccc(OC(C)C)cc1 [Compound 219] | 142 nM
18 | CNCCN(C)Cc1cnn(C2CCOC2)c1-c1ccc(OC(C)C)cc1 (centres unmarked) [Compound 216] | 285 nM
19 | CNCCN(C)Cc1cnn(C(C)C)c1-c1ccc(F)cc1 [Compound 16] | 6740 nM
20 | CNCCN(C)Cc1cn(Cc2ccccc2)nc1-c1ccc(OC(C)C)cc1 [Compound 217] | 620 nM
21 | CNCCN(C)Cc1cn(C2CCOC2)nc1-c1ccc(OC(C)C)cc1 (centres unmarked) [Compound 215] | 299 nM
22 | CNCCN(C)Cc1cn[nH]c1-c1ccc(C#N)cc1 [Compound 17] | 1560 nM
23 | CN(CCN)Cc1n[nH]cc1-c1ccc(C2CCOCC2)cc1 [Compound 145] | 4920 nM
